From ChEMBL document CHEMBL1201862, “PubChem BioAssay data set” (2004)
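Results reflect a 48-hour exposure of cells in 96-well plates to compound at five concentrations. Here, GI50 denotes the concentration required for 50% inhibition of growth.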 Calls of active or inactive are those of the source. Cut-off read from the data, not from the text of the source: active = GI50 up to about 1.1 µM and inactive = higher.

Experiments:
Assay in all cases: NCI-60 cell line screen, 48 h
[1] = system: 786-0
[2] = system: NCI/ADR-RES
[3] = system: UO-31
[4] = system: K562
[5] = system: NCI-H460
[6] = system: MCF7
[7] = system: A498
[8] = system: NCI-H522
[9] = system: T47D
[10] = system: MOLT-4
[11] = system: BT-549
[12] = system: SK-MEL-5
[13] = system: MDA-N
[14] = system: HT-29
[15] = system: HCT-15
[16] = system: HOP-62
[17] = system: SK-OV-3
[18] = system: SN12C
[19] = system: OVCAR-3
[20] = system: CAKI-1

Compound	GI50 [1]	GI50 [2]	GI50 [3]	GI50 [4]	GI50 [5]	GI50 [6]	GI50 [7]	GI50 [8]	GI50 [9]	GI50 [10]	GI50 [11]	GI50 [12]	GI50 [13]	GI50 [14]	GI50 [15]	GI50 [16]	GI50 [17]	GI50 [18]	GI50 [19]	GI50 [20]
c1ccc(-c2cnc(-c3ccc(-c4ncc(-c5ccccc5)o4)cc3)o2)cc1	> 100 µM (inactive)	> 100 µM (inactive)	> 100 µM (inactive)	> 100 µM (inactive)	> 100 µM (inactive)	> 100 µM (inactive)	> 100 µM (inactive)	> 100 µM (inactive)	> 100 µM (inactive)	> 100 µM (inactive)	> 100 µM (inactive)	> 100 µM (inactive)	> 100 µM (inactive)	> 100 µM (inactive)	> 100 µM	> 100 µM (inactive)	> 100 µM (inactive)	> 100 µM (inactive)	> 100 µM (inactive)	
N#Cc1c(Cl)cccc1Oc1ccc(S(=O)(=O)/N=C(\NN)Nc2ccc(Cl)cc2)cc1	23.8 µM (inactive)	32.9 µM (inactive)	25.5 µM (inactive)	34.8 µM (inactive)	19.2 µM (inactive)	35.7 µM (inactive)	32.4 µM (inactive)		20.1 µM (inactive)	14.6 µM (inactive)	25.1 µM (inactive)	17.1 µM (inactive)	25.5 µM (inactive)	30.3 µM (inactive)	34.4 µM	21.1 µM (inactive)	32.3 µM (inactive)	25.2 µM (inactive)	19.7 µM (inactive)	33.3 µM (inactive)
Cc1cc2c(cc1Cl)Sc1nnc(Nc3ccccc3)n1S2(=O)=O	4.75 µM (inactive)	6.22 µM (inactive)	13.4 µM (inactive)	8.69 µM (inactive)	8.36 µM (inactive)	8.02 µM (inactive)	12.7 µM (inactive)	2.93 µM (inactive)	7.78 µM (inactive)	3.07 µM (inactive)	7.78 µM (inactive)	11.7 µM (inactive)	6.05 µM (inactive)	23.4 µM (inactive)	5.07 µM	3.64 µM (inactive)			2.2 µM (inactive)	11.1 µM (inactive)
C=C(C)[C@@H]1C[C@H]2O[C@](O)(C(=C)CC(=O)/C=C(/C)C[C@@H]3OC(=O)[C@]24O[C@@H]34)[C@H]1O	> 100 µM (inactive)	> 100 µM (inactive)	> 100 µM (inactive)	> 100 µM (inactive)	> 100 µM (inactive)	> 100 µM (inactive)	> 100 µM (inactive)	> 100 µM (inactive)	> 100 µM (inactive)	> 100 µM (inactive)	> 100 µM (inactive)	> 100 µM (inactive)	> 100 µM (inactive)	> 100 µM (inactive)	> 100 µM	> 100 µM (inactive)	> 100 µM (inactive)	> 100 µM (inactive)		> 100 µM (inactive)
CCOC(=O)/C(C#N)=N\Nc1ccc(-n2c(C)nc3ccc(Br)cc3c2=O)cc1	83.9 µM (inactive)	62.4 µM (inactive)	30.5 µM (inactive)	35.6 µM (inactive)	44.7 µM (inactive)	72.1 µM (inactive)	> 100 µM (inactive)		34.2 µM (inactive)	27.4 µM (inactive)	88.7 µM (inactive)	25.6 µM (inactive)	> 100 µM (inactive)	69.5 µM (inactive)	47.9 µM	91.6 µM (inactive)	> 100 µM (inactive)	63.8 µM (inactive)	52.7 µM (inactive)	> 100 µM (inactive)
CC(=O)Nc1ccc2c(C)c3c(nc2n1)[nH]c1ccccc13	35.4 µM (inactive)	22.1 µM (inactive)	24.5 µM (inactive)	35.5 µM (inactive)	21.1 µM (inactive)	19.2 µM (inactive)	60.7 µM (inactive)	20 µM (inactive)	13.3 µM (inactive)	19.7 µM (inactive)	31.9 µM (inactive)	14.9 µM (inactive)	18.1 µM (inactive)	27.9 µM (inactive)	15.5 µM	32.2 µM (inactive)		30.5 µM (inactive)	23.9 µM (inactive)	24 µM (inactive)
CN(CC#N)C(=O)Cc1ccc([N+](=O)[O-])cc1	> 10 µM (inactive)	> 10 µM (inactive)	> 10 µM (inactive)	> 10 µM (inactive)	> 10 µM (inactive)	> 10 µM (inactive)	> 10 µM (inactive)		> 10 µM (inactive)	> 10 µM (inactive)	> 10 µM (inactive)	> 10 µM (inactive)	> 10 µM (inactive)	> 10 µM (inactive)	> 10 µM	> 10 µM (inactive)	> 10 µM (inactive)	> 10 µM (inactive)	> 10 µM (inactive)	> 10 µM (inactive)
Cc1cc2c(c(C(=O)NCCC(=O)N[C@@H](C)C(=O)OCc3ccccc3)c1)Oc1c(cc(C)cc1C(=O)NCCC(=O)N[C@@H](C)C(=O)OCc1ccccc1)S2	> 100 µM (inactive)	> 100 µM (inactive)	> 100 µM (inactive)	> 100 µM (inactive)	> 100 µM (inactive)	> 100 µM (inactive)	> 100 µM (inactive)		> 100 µM (inactive)	> 100 µM (inactive)	> 100 µM (inactive)	> 100 µM (inactive)	> 100 µM (inactive)	> 100 µM (inactive)	> 100 µM	> 100 µM (inactive)	80 µM (inactive)	> 100 µM (inactive)	> 100 µM (inactive)	> 100 µM (inactive)
N#CC(C#N)=CNC(=S)Nc1ccc(S(=O)(=O)Nc2nccs2)cc1	> 100 µM (inactive)	> 100 µM (inactive)	> 100 µM (inactive)		> 100 µM (inactive)	> 100 µM (inactive)	> 100 µM (inactive)		> 100 µM (inactive)	> 100 µM (inactive)	> 100 µM (inactive)	> 100 µM (inactive)	> 100 µM (inactive)	> 100 µM (inactive)	> 100 µM	> 100 µM (inactive)	> 100 µM (inactive)	> 100 µM (inactive)	> 100 µM (inactive)	> 100 µM (inactive)
O=c1[nH]cnc2c1ncn2[C@@H]1C[C@@H]1CO	> 100 µM (inactive)	> 100 µM (inactive)	> 100 µM (inactive)	> 100 µM (inactive)	> 100 µM (inactive)	> 100 µM (inactive)	> 10 µM (inactive)	> 100 µM (inactive)	> 100 µM (inactive)	> 100 µM (inactive)	> 100 µM (inactive)	> 100 µM (inactive)	> 100 µM (inactive)	> 100 µM (inactive)	> 100 µM	> 100 µM (inactive)		> 100 µM (inactive)		> 100 µM (inactive)
c1ccc2c(CC3NCCN3)cccc2c1	> 100 µM (inactive)	> 100 µM (inactive)		> 100 µM (inactive)	> 100 µM (inactive)	> 100 µM (inactive)	> 100 µM (inactive)	> 100 µM (inactive)	> 100 µM (inactive)	> 100 µM (inactive)	> 100 µM (inactive)	> 100 µM (inactive)	> 100 µM (inactive)	> 100 µM (inactive)	> 100 µM	> 100 µM (inactive)	> 100 µM (inactive)	> 100 µM (inactive)	> 100 µM (inactive)	> 100 µM (inactive)
Nc1ncnc2c1ncn2C1OC(COP(=O)(O)CP(=O)(O)O)C(O)C1O (stereo unspecified)	> 100 µM (inactive)	> 100 µM (inactive)	> 100 µM (inactive)	> 100 µM (inactive)		> 100 µM (inactive)	> 100 µM (inactive)	> 100 µM (inactive)	> 100 µM (inactive)	> 100 µM (inactive)	> 100 µM (inactive)	> 100 µM (inactive)	> 100 µM (inactive)	> 100 µM (inactive)	> 100 µM	> 100 µM (inactive)	> 100 µM (inactive)	> 100 µM (inactive)		> 100 µM (inactive)
CC(C)C[C@H](NC(=O)CCc1ccccc1)B(O)O	12.3 µM (inactive)	22.7 µM (inactive)	15.8 µM (inactive)	17.6 µM (inactive)	19 µM (inactive)	6.03 µM (inactive)	3.19 µM (inactive)	11.7 µM (inactive)	18.7 µM (inactive)	3.04 µM (inactive)	17.5 µM (inactive)	8.45 µM (inactive)	2.49 µM (inactive)	2.85 µM (inactive)	17.3 µM	16.8 µM (inactive)		16.8 µM (inactive)	3.63 µM (inactive)	5.08 µM (inactive)
NN/C(=N\S(=O)(=O)c1cc(Cl)c(Oc2ccc([N+](=O)[O-])cc2Cl)c(Cl)c1)Nc1ccc(Cl)cc1	18.2 µM (inactive)	23.2 µM (inactive)	17.6 µM (inactive)	27 µM (inactive)	15.8 µM (inactive)	22.6 µM (inactive)	22.8 µM (inactive)		19.8 µM (inactive)	19.1 µM (inactive)	18.4 µM (inactive)	16 µM (inactive)	17.8 µM (inactive)	19.1 µM (inactive)	19.2 µM	18.4 µM (inactive)	44.7 µM (inactive)	17.4 µM (inactive)	15.9 µM (inactive)	17.9 µM (inactive)
O=C1OC(c2ccc(O)c(Cl)c2)(c2ccc(O)c(Cl)c2)c2ccc(Br)c3cccc1c23.O=C1OC(c2ccc(O)c(Cl)c2)(c2ccc(O)c(Cl)c2)c2cccc3c(Br)ccc1c23	19 µM (inactive)	16.6 µM (inactive)	19.4 µM (inactive)	22.7 µM (inactive)	16.4 µM (inactive)	15.2 µM (inactive)	18.7 µM (inactive)		2.9 µM (inactive)	16.3 µM (inactive)	21.5 µM (inactive)	17.5 µM (inactive)	21 µM (inactive)	11.5 µM (inactive)	24.8 µM	21.5 µM (inactive)	17.2 µM (inactive)	15 µM (inactive)	5.82 µM (inactive)	14.1 µM (inactive)
